Assay results published in article PMC10385850, “Modified Hederagenin Derivatives Demonstrate Ex Vivo Anthelmintic Activity against Fasciola hepatica” (Pharmaceutics, 2023).
Values belong to the compound of their own block, whether it stands above or below them.

Legend:
[1] = system: wild strain adult F. hepatica; assay: Ex vivo motility assay on adult liver flukes (wild strain); type: cell-based, Fasciola hepatica; conditions: 40 µM; for Effect on wild strain adult fluke motility, in words: 72 h; for Average motility of 4 parasites with 95% CI at 72 hour time point: wild strain adult flukes, score 1 good/normal to 6 no movement or dead
Summary of the method: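 Wild-strain adult F. hepatica of unknown provenance (n = 4 per condition) were exposed ex vivo to 40 µM compound in 0.4% DMSO for 72 h. Motility was scored from 1 (normal) to 6 (no movement/dead).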

[2] = system: F. hepatica newly excysted juveniles (NEJs), Italian strain; assay: Ex vivo screen against newly excysted juveniles (NEJs), phenotype and motility scoring; type: cell-based, Fasciola hepatica; conditions: 10 µM; for Average phenotype of 25 NEJs with 95% CI, 24 hours / Average phenotype of 25 NEJs with 95% CI, 48 hours / Average phenotype of 25 NEJs with 95% CI, 72 hours: ultrastructure score 1 normal to 6 dead or dissolved; for Activity against NEJs (first screen), in words: 72 h co-culture
Summary of the method: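 Newly excysted juveniles of the Italian strain of F. hepatica were obtained by excysting metacercariae and exposed ex vivo to test compounds at 10 μM final concentration in 0.1% DMSO. Controls were 0.1% DMSO (negative) and 10 μM TCBZ in 0.1% DMSO (positive). Motility was scored from 1 (good/normal) to 5 (no movement), and ultrastructural phenotype changes were scored with an established matrix.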

[3] = system: immature F. hepatica flukes (Italian strain); assay: Ex vivo motility assay on immature liver flukes (Italian strain), single concentration and dose response; type: cell-based, Fasciola hepatica; conditions: 40 µM; for Average motility of 4 parasites with 95% CI at 24 hour time point / Average motility of 4 parasites with 95% CI at 48 hour time point / Average motility of 4 parasites with 95% CI at 72 hour time point: immature flukes; for Average motility of 4 parasites with 95% CI at 24 hour time point: score 1 normal to 5 no movement or death; for Average motility of 4 parasites with 95% CI at 48 hour time point / Average motility of 4 parasites with 95% CI at 72 hour time point: score 1 to 5; for Effect on immature fluke motility, in words: by 72 h
Protocol: The six selected compounds (at 40 µM in 0.4% DMSO) were evaluated on immature flukes (n = 4/condition) at 24, 48 and 72 h (Table S4). The protocol for culturing and scoring (motility) of these life stages have been previously described. Due to restricted numbers of immature worms, a dose response assay was conducted only for MC042. Here, immature worms (n = 2/concentration tested) were screened against descending concentrations of MC042 (40 µM, 13.3 µM and 4.4 µM); motility scores were recorded at 24, 48 and 72 h (Table S5). The scoring pattern used is identical to that described for NEJs.

[4] = system: adult F. hepatica flukes (Italian strain); assay: Ex vivo dose response motility assay on adult liver flukes (Italian strain); type: cell-based, Fasciola hepatica; conditions: for Selectivity Index (SI) on Adult Flukes SI=CC50/EC50, 72 hour: CC50 in MDBK cells (24 h) / EC50 adult flukes 72 h; for EC50: Fasciola hepatica, adult flukes, motility, read-out: EC50 with 95% CI on Adult Flukes (motility), 72 hour; for Effect on adult fluke (Italian strain) movement, in words: dose response, MC042 statement at 40 μM after 72 h
Protocol: The collection, ex vivo culturing and screening of adult liver fluke (Italian strain; n = 3/condition) was previously described. Dose response assays (40 µM, 13.3 µM and 4.4 µM) were conducted for MC014, MC042, MC035, MC055 and MC062 with motility scores recorded at 24, 48 and 72 h (Table S6).

[5] = MTT cell viability assay on MDBK cells; type: cell-based, bovine; conditions: bovine, MDBK cells (Madin–Darby bovine kidney); MDBK cells, MTT, 24 h exposure; read-out: CC50 with 95% CI on MDBK cells (cytotoxicity)
Protocol: MTT cell viability assays were performed on Madin–Darby bovine kidney (MDBK cells) for the five selected hederagenin derivatives (MC014, MC035, MC042, MC055 and MC062) using final concentrations of 100 μM, 75 μM, 50 μM, 25 μM, 10 μM, 5 μM and 1 μM (in 1% DMSO). Negative (1% v/v Triton X-100, Sigma-Aldrich, UK) and positive (1% v/v DMSO or media only) controls were included. The protocol was followed as previously described. Absolute EC50 values were calculated from the corrected absorbance of replicates by non-linear regression, after log transformation of concentrations and data normalization (where DMSO values represents 0% inhibition and TX-100 values represent 100% inhibition) using GrapPad Prism 8.

F. hepatica = system: F. hepatica; set-up: method as in PMID 4034744; conditions: cited from earlier work
[6] = 4.4 µM, adult flukes Italian strain, score 1 to 6
[7] = adult flukes Italian strain, score 1 to 6
[8] = 72 h, adult flukes Italian strain, score 1 to 6

EC50 ([4]; 72 h): 6.06 µM
Compound: CC1(C)CC[C@]2(NC(=O)N3CCCC3)CC[C@]3(C)C(=CCC4[C@@]5(C)CC[C@H](O)[C@@](C)(CO)C5CC[C@]43C)C2C1 (stereo partly drawn) [MC055, N-((4aS,6aS,6bR,9R,10S,12aR)-10-Hydroxy-9-(hydroxymethyl)-2,2,6a,6b,9,12a-hexamethyl-1,3,4,5,6,6a,6b,7,8,8a,9,10,11,12,12a,12b,13,14b-octadecahydropicen-4a(2H)-yl)pyrrol-idine-1-carboxamide]
Effect on wild strain adult fluke motility, in words [1]: partial paralysis | Average motility of 4 parasites with 95% CI at 72 hour time point [1]: 5.25 (4.7;5.7) | Average motility of 25 NEJs with 95% CI, 24 hours ([2]; 24 h, motility score 1 good/normal to 5 no movement): 5.00 (5.0;5.0) | Average phenotype of 25 NEJs with 95% CI, 24 hours ([2]; 24 h): 6.00 (6.0;6.0) | Average motility of 25 NEJs with 95% CI, 48 hours ([2]; 48 h, motility score 1 good/normal to 5 no movement): 5.00 (5.0;5.0) | Average phenotype of 25 NEJs with 95% CI, 48 hours ([2]; 48 h): 6.00 (6.0;6.0) | Average motility of 25 NEJs with 95% CI, 72 hours ([2]; 72 h, motility score 1 good/normal to 5 no movement): 5.00 (5.0;5.0) | Average phenotype of 25 NEJs with 95% CI, 72 hours ([2]; 72 h): 6.00 (6.0;6.0) | Activity against NEJs (first screen), in words [2]: maximal alterations to both phenotype/ultrastructure and motility | Average motility of 4 parasites with 95% CI at 24 hour time point [3]: 2.75 (1.8;3.6) | Average motility of 4 parasites with 95% CI at 48 hour time point [3]: 5.00 (5.0;5.0) | Average motility of 4 parasites with 95% CI at 72 hour time point [3]: 5.00 (5.0;5.0) | Effect on immature fluke motility, in words [3]: paralyzed the assayed immature flukes | Average motility of 3 parasites treated with 4.4 µM, 24 hours [4, 6]: 1.00 (1.0;1.0) | Average motility of 3 parasites treated with 4.4 µM, 48 hours [4, 6]: 1.00 (1.0;1.0) | Average motility of 3 parasites treated with 4.4 µM, 72 hours ([4]; 4.4 µM, 72 h, adult flukes Italian strain, score 1 to 6): 3.00 (3.0;3.0) | Average motility of 3 parasites treated with 13.3 µM, 24 hours [4, 7]: 1.00 (1.0;1.0) | Average motility of 3 parasites treated with 13.3 µM, 48 hours [4, 7]: 1.00 (1.0;1.0) | Average motility of 3 parasites treated with 13.3 µM, 72 hours [4, 8]: 4.66 (3.3;5.9) | Average motility of 3 parasites treated with 40 µM, 24 hours [4, 7]: 3.00 (3.0;3.0) | Average motility of 3 parasites treated with 40 µM, 48 hours [4, 7]: 3.66 (3.0;4.3) | Average motility of 3 parasites treated with 40 µM, 72 hours [4, 8]: 5.00 (5.0;5.0) | Selectivity Index (SI) on Adult Flukes SI=CC50/EC50, 72 hour [4]: 5.72 | Effect on adult fluke (Italian strain) movement, in words [4]: Decreased movement | CC50 at 24 h [5]: 34.7 µM

EC50 ([4]; 72 h): 5.61 µM
Compound: CN1CCN(C(=O)N[C@]23CCC(C)(C)CC2C2=CCC4[C@@]5(C)CC[C@@H]6OC(C)(C)OC[C@@]6(C)C5CC[C@@]4(C)[C@]2(C)CC3)CC1 (stereo partly drawn) [MC062, 4-Methyl-N-((4aR,6aR,6bS,8aS,14bR,16aS)-2,2,4a,6a,6b,11,11,14b-octamethyl-4a,5,6,6a, 6b,7,8,9,10,11, 12,12a,14,14a,14b,15,16,16a-octadecahydro-4H-piceno[3,4-d][1,3]dioxin-8a(4bH)-yl)piperazine-1-carboxamide]
Effect on wild strain adult fluke motility, in words [1]: partial paralysis | Average motility of 4 parasites with 95% CI at 72 hour time point [1]: 5.00 (5.0;5.0) | Average phenotype of 25 NEJs with 95% CI, 24 hours ([2]; 24 h): 6.00 (6.0;6.0) | Average phenotype of 25 NEJs with 95% CI, 48 hours ([2]; 48 h): 6.00 (6.0;6.0) | Average phenotype of 25 NEJs with 95% CI, 72 hours ([2]; 72 h): 6.00 (6.0;6.0) | Activity against NEJs (first screen), in words [2]: maximal alterations to both phenotype/ultrastructure and motility | Average motility of 4 parasites with 95% CI at 24 hour time point [3]: 5.00 (5.0;5.0) | Average motility of 4 parasites with 95% CI at 48 hour time point [3]: 5.00 (5.0;5.0) | Average motility of 4 parasites with 95% CI at 72 hour time point [3]: 5.00 (5.0;5.0) | Effect on immature fluke motility, in words [3]: paralyzed the assayed immature flukes | Average motility of 3 parasites treated with 4.4 µM, 24 hours [4, 6]: 1.00 (1.0; 1.0) | Average motility of 3 parasites treated with 4.4 µM, 48 hours [4, 6]: 1.00 (1.0; 1.0) | Average motility of 3 parasites treated with 13.3 µM, 24 hours [4, 7]: 1.00 (1.0; 1.0) | Average motility of 3 parasites treated with 13.3 µM, 48 hours [4, 7]: 1.66 (1.0; 2.3) | Average motility of 3 parasites treated with 13.3 µM, 72 hours [4, 8]: 5.00 (5.0; 5.0) | Average motility of 3 parasites treated with 40 µM, 24 hours [4, 7]: 3.00 (3.0;3.0) | Average motility of 3 parasites treated with 40 µM, 48 hours [4, 7]: 4.00 (4.0;4.0) | Average motility of 3 parasites treated with 40 µM, 72 hours [4, 8]: 5.00 (5.0;5.0) | Selectivity Index (SI) on Adult Flukes SI=CC50/EC50, 72 hour [4]: 2.43 | Effect on adult fluke (Italian strain) movement, in words [4]: Decreased movement | CC50 at 24 h [5]: 13.7 µM

Compound: C[C@@H]1O[C@@H](O[C@H]2[C@H](O[C@H]3CC[C@@]4(C)[C@@H](CC[C@]5(C)[C@@H]4CC=C4[C@@H]6CC(C)(C)CC[C@]6(C(=O)O)CC[C@]45C)[C@]3(C)CO)OC[C@H](O)[C@@H]2O)[C@H](O)[C@H](O)[C@H]1O [α-Hederin]
Activity against F. hepatica, in words (F. hepatica): lethal activity
